Test results: ChEMBL document CHEMBL4184333, “Expanding Benzoxazole-Based Inosine 5'-Monophosphate Dehydrogenase (IMPDH) Inhibitor Structure-Activity As Potential Antituberculosis Agents” (J Med Chem, 2018)
Values after ≈ are worked out from the molar mass of the structure shown. Active and inactive are the calls of the source. The rule behind the calls is not given here.

Tested on: Mycobacterium tuberculosis
Assay: Antitubercular activity against Mycobacterium tuberculosis H37Rv ATCC 27294 using GAST/Fe medium after 1 week in presence of guanine by broth microdilution method
Format: functional
Conditions: H37Rv ATCC 27294, 168 h

| SMILES | MIC |
| --- | --- |
| COc1ccc(-c2nc3cc(NC(=O)[C@H](C)Oc4ccccc4C#N)ccc3o2)cc1 | 6.3 µM |
| C#CCOC(=O)COc1ccc(-c2nc3cc(NC(=O)[C@H](C)Oc4cccc(Cl)c4Cl)ccc3o2)cc1 | 1.4 µM |
| C[C@H](Oc1cccc(F)c1F)C(=O)Nc1ccc2oc(-c3ccncc3)nc2c1 | 6.3 µM |
| COc1ccc(OC(C)C(=O)Nc2ccc3oc(-c4ccncc4)nc3c2)cc1 (configuration not stated) | 24 µM |
| C[C@H](Oc1cccc(F)c1F)C(=O)Nc1ccc2oc(-c3ccc(C#N)cc3)nc2c1 | 6.3 µM |

Tested on: Mycobacterium tuberculosis
Assay: Antitubercular activity against Mycobacterium tuberculosis H37Rv ATCC 27294 using 7H9/ADC/Tween medium after 1 week in absence of guanine by broth microdilution method
Format: functional
Conditions: H37Rv ATCC 27294, 168 h

| SMILES | MIC |
| --- | --- |
| COc1ccc(-c2nc3cc(NC(=O)[C@H](C)Oc4ccccc4C#N)ccc3o2)cc1 | 1.2 µM (≈ 0.496 µg/mL) |
| C#CCOC(=O)COc1ccc(-c2nc3cc(NC(=O)[C@H](C)Oc4cccc(Cl)c4Cl)ccc3o2)cc1 | 0.2 µM (≈ 0.108 µg/mL) |
| C[C@H](Oc1cccc(F)c1F)C(=O)Nc1ccc2oc(-c3ccncc3)nc2c1 | 1.9 µM (≈ 0.751 µg/mL) |
| COc1ccc(OC(C)C(=O)Nc2ccc3oc(-c4ccncc4)nc3c2)cc1 (configuration not stated) | 10 to 12.5 µM (≈ 3.89 to 4.87 µg/mL) |
| C[C@H](Oc1cccc(F)c1F)C(=O)Nc1ccc2oc(-c3ccc(C#N)cc3)nc2c1 | 1.5 µM (≈ 0.629 µg/mL) |

Tested on: HepG2
Assay: Cytotoxicity against human HepG2 cells assessed as LDH release at 25 uM after 24 hrs relative to control
Format: cell-based
Conditions: hepg2, 24 h

| SMILES | Activity |
| --- | --- |
| COc1ccc(-c2nc3cc(NC(=O)[C@H](C)Oc4ccccc4C#N)ccc3o2)cc1 | 9 to 13% |
| C[C@H](Oc1cccc(F)c1F)C(=O)Nc1ccc2oc(-c3ccc(C#N)cc3)nc2c1 | 9 to 13% |

Tested on: not listed separately
Assay: (§1) Cytotoxicity against human HepG2 cells after 24 hrs by LDH release assay
Format: cell-based
Conditions: HepG2 cells, read-out: LD50

| SMILES | CC50 at 24 h |
| --- | --- |
| COc1ccc(-c2nc3cc(NC(=O)[C@H](C)Oc4ccccc4C#N)ccc3o2)cc1 | > 25 µM |
| C[C@H](Oc1cccc(F)c1F)C(=O)Nc1ccc2oc(-c3ccc(C#N)cc3)nc2c1 | > 25 µM |

Tested on: HepG2
Assay: as §1
Format: cell-based
Conditions: hepg2, 24 h

| SMILES | Activity |
| --- | --- |
| C#CCOC(=O)COc1ccc(-c2nc3cc(NC(=O)[C@H](C)Oc4cccc(Cl)c4Cl)ccc3o2)cc1 | Non-Toxic |

Tested on: Mycobacterium tuberculosis
Assay: Antitubercular activity against Mycobacterium tuberculosis H37Rv ATCC 27294 using GAST/Fe medium after 1 week in absence of guanine by broth microdilution method
Format: functional
Conditions: H37Rv ATCC 27294, 168 h

| SMILES | MIC |
| --- | --- |
| COc1ccc(-c2nc3cc(NC(=O)[C@H](C)Oc4ccccc4C#N)ccc3o2)cc1 | 3.1 µM (≈ 1.28 µg/mL) |
| C#CCOC(=O)COc1ccc(-c2nc3cc(NC(=O)[C@H](C)Oc4cccc(Cl)c4Cl)ccc3o2)cc1 | 0.4 µM (≈ 0.216 µg/mL) |
| C[C@H](Oc1cccc(F)c1F)C(=O)Nc1ccc2oc(-c3ccncc3)nc2c1 | 4 µM (≈ 1.58 µg/mL) |
| COc1ccc(OC(C)C(=O)Nc2ccc3oc(-c4ccncc4)nc3c2)cc1 (configuration not stated) | 5.3 µM (≈ 2.06 µg/mL) |
| C[C@H](Oc1cccc(F)c1F)C(=O)Nc1ccc2oc(-c3ccc(C#N)cc3)nc2c1 | 3 µM (≈ 1.26 µg/mL) |

Molecular target: Inosine-5'-monophosphate dehydrogenase 2 (Homo sapiens, UniProt P12268)
Assay: Inhibition of human IMPDH2 using IMP as substrate by spectrophotometric method
Conditions: read-out: Ki(app)

| SMILES | Ki |
| --- | --- |
| COc1ccc(-c2nc3cc(NC(=O)[C@H](C)Oc4ccccc4C#N)ccc3o2)cc1 | > 5 µM |
| C#CCOC(=O)COc1ccc(-c2nc3cc(NC(=O)[C@H](C)Oc4cccc(Cl)c4Cl)ccc3o2)cc1 | > 5 µM |
| C[C@H](Oc1cccc(F)c1F)C(=O)Nc1ccc2oc(-c3ccncc3)nc2c1 | > 5 µM |
| COc1ccc(OC(C)C(=O)Nc2ccc3oc(-c4ccncc4)nc3c2)cc1 (configuration not stated) | > 5 µM |
| C[C@H](Oc1cccc(F)c1F)C(=O)Nc1ccc2oc(-c3ccc(C#N)cc3)nc2c1 | 2 µM |

Tested on: Mycobacterium tuberculosis
Assay: Antitubercular activity against Mycobacterium tuberculosis H37Rv ATCC 27294 using GAST/Fe medium after 2 weeks in absence of guanine by broth microdilution method
Format: functional, organism-based
Conditions: not given

| SMILES | Activity |
| --- | --- |
| COc1ccc(-c2nc3cc(NC(=O)[C@H](C)Oc4ccccc4C#N)ccc3o2)cc1 | Active |
| C#CCOC(=O)COc1ccc(-c2nc3cc(NC(=O)[C@H](C)Oc4cccc(Cl)c4Cl)ccc3o2)cc1 | Active |
| C[C@H](Oc1cccc(F)c1F)C(=O)Nc1ccc2oc(-c3ccncc3)nc2c1 | Active |

Molecular target: T1, GMP reductase 2 (Homo sapiens, UniProt Q9P2T1)
T1 sequence (Q9P2T1 whole entry): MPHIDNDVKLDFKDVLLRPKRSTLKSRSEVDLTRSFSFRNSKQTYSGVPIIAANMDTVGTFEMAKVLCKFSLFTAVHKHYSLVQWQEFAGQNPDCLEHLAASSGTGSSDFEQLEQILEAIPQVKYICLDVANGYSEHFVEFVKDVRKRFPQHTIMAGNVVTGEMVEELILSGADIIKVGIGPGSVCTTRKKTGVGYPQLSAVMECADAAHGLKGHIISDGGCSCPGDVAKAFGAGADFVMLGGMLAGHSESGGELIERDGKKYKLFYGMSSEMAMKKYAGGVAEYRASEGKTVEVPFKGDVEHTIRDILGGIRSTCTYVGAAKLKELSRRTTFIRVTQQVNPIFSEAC
Assay: Inhibition of human GMPR2 using GMP as substrate by spectrophotometric method
Conditions: read-out: Ki(app)

| SMILES | Ki |
| --- | --- |
| COc1ccc(-c2nc3cc(NC(=O)[C@H](C)Oc4ccccc4C#N)ccc3o2)cc1 | > 5 µM |
| C#CCOC(=O)COc1ccc(-c2nc3cc(NC(=O)[C@H](C)Oc4cccc(Cl)c4Cl)ccc3o2)cc1 | > 5 µM |
| C[C@H](Oc1cccc(F)c1F)C(=O)Nc1ccc2oc(-c3ccncc3)nc2c1 | > 5 µM |
| COc1ccc(OC(C)C(=O)Nc2ccc3oc(-c4ccncc4)nc3c2)cc1 (configuration not stated) | > 5 µM |
| C[C@H](Oc1cccc(F)c1F)C(=O)Nc1ccc2oc(-c3ccc(C#N)cc3)nc2c1 | > 5 µM |

Tested on: Mycobacterium tuberculosis
Assay: Antitubercular activity against Mycobacterium tuberculosis H37Rv ATCC 27294 using 7H9/ADC/Tween medium after 1 week in presence of guanine by broth microdilution method
Format: functional
Conditions: H37Rv ATCC 27294, 168 h

| SMILES | MIC |
| --- | --- |
| COc1ccc(-c2nc3cc(NC(=O)[C@H](C)Oc4ccccc4C#N)ccc3o2)cc1 | 4.7 µM |
| C#CCOC(=O)COc1ccc(-c2nc3cc(NC(=O)[C@H](C)Oc4cccc(Cl)c4Cl)ccc3o2)cc1 | 0.4 µM |
| C[C@H](Oc1cccc(F)c1F)C(=O)Nc1ccc2oc(-c3ccncc3)nc2c1 | 4 µM |
| COc1ccc(OC(C)C(=O)Nc2ccc3oc(-c4ccncc4)nc3c2)cc1 (configuration not stated) | 21 µM |
| C[C@H](Oc1cccc(F)c1F)C(=O)Nc1ccc2oc(-c3ccc(C#N)cc3)nc2c1 | 4 µM |

Tested on: Mycobacterium tuberculosis
Assay: Antitubercular activity against Mycobacterium tuberculosis H37Rv ATCC 27294 using 7H9/ADC/Tween medium after 2 weeks in absence of guanine by broth microdilution method
Format: functional, organism-based
Conditions: not given

| SMILES | Activity |
| --- | --- |
| COc1ccc(-c2nc3cc(NC(=O)[C@H](C)Oc4ccccc4C#N)ccc3o2)cc1 | Active |
| C#CCOC(=O)COc1ccc(-c2nc3cc(NC(=O)[C@H](C)Oc4cccc(Cl)c4Cl)ccc3o2)cc1 | Active |
| C[C@H](Oc1cccc(F)c1F)C(=O)Nc1ccc2oc(-c3ccncc3)nc2c1 | Active |

Tested on: Mycobacterium tuberculosis
Assay: Antitubercular activity against Mycobacterium tuberculosis H37Rv ATCC 27294 using 7H9/ADC/Tween medium after 1 week in absence of guanine and presence of anhydrotetracycline by Alamar blue assay
Format: functional
Conditions: H37Rv ATCC 27294, 168 h

| SMILES | MIC |
| --- | --- |
| COc1ccc(OC(C)C(=O)Nc2ccc3oc(-c4ccncc4)nc3c2)cc1 (configuration not stated) | 12.5 µM |
